# Columns and labels:
# [1] = Drug level in urine of Sprague-Dawley rat treated with [14C]apixaban at 30 mg/kg, po assessed as compound level by HPLC method; conditions: in vivo
# [2] = Drug level in feces of Sprague-Dawley rat treated with [14C]apixaban at 30 mg/kg, po assessed as compound level by HPLC method; conditions: in vivo
smiles,measurement,setting,value
NC(=O)c1nn(-c2ccc(O)cc2)c2c1CCN(c1ccc(N3CCCC[14C]3=O)cc1)C2=O,Compound recovery,[1],2%
same,Compound recovery,[2],13%

# From ChEMBL document CHEMBL3525963, “Tissue distribution and elimination of [14C]apixaban in rats” (Drug Metab Dispos, 2011)
